# Columns and labels:
# Assay type in all cases: cell-based
# histone γH2AX-foci = experiment: γH2AX foci analysis (DNA damage); details: IC50 concentration, 24h incubation
# Description: ROS production may also lead to endoplasmatic reticulum stress-induced apoptosis. In general, many ruthenium(II) complexes with different ligands induce intracellular ROS [94, 95, 96, 97, 98, 99]. Moreover, the cytotoxic activity of Os(II) compounds can be inhibited by vitamin E co-treatment pointing to the contribution of ROS [88]. In addition to mitochondrial dysfunction, Ru(II) complexes may affect glycolysis or topoisomerase I/II, thus inducing necroptosis. Ru(II) compounds with modified pyrithione ligands were recently described to overcome platinum resistance in ovarian cancer cells by inducing cytostatic G1 arrest, TrxR inhibition, and cell membrane damage. […] Future studies may identify the specific target proteins enabling molecular docking studies and specific refinement of the organo-metal compound structure. Altogether, presented compounds may use some of these alternative modes of action as well, as we see efficient cell death but no cell cycle arrest induction by Ru3/Ru14. Furthermore, the ruthenium(II) core atom might be responsible for this effect because of the lack of anticancer behaviour of the ligand L14 (Supplementary Figure S8). To further confirm that Ru compounds use another mechanism of action, DNA damage analyses were conducted for Ru3 and Ru14 (Figure 8). […]
# A2780 cells = experiment: Cell death rate, PI staining of live cells (FACS); details: A2780 and SKOV3 cells, 20 µM and 30 µM, 48 h
# Description: For cell death rate analysis, live cells were stained with PI immediately after 48 h treatment. […] Furthermore, resistant cells show much lower Cisplatin-induced cell death rates (Figure 7). […] In A2780 cells, both compounds trigger similar cell death rates in parental and Cisplatin-resistant cells. Cisplatin-resistant SKOV3 are much more sensitive to both ruthenium(II) complexes than the parental counterpart, with a median of 3.3-fold higher sensitivity.
# (§1) To examine cell cycle distribution and cell death rates, 30,000 cells were seeded in 12 well plates. After attaching for 24 h cells were treated with Cisplatin, Ru3 and Ru14 for 48 h at various concentrations for cell cycle and cell death analyses. For cell death analysis, immediately after treatment cells were stained with Propidium Iodid (PI) (1 µg/mL) on ice and the number of dead cells was measured using BD Canto II. For cell cycle distribution, cells recovered for 24 h after treatment. Afterwards, cells were fixed in ice-cold, 50% EtOH for 24 h at −20 °C. For DNA staining, fixed cells were incubated in PBS with 0.05% Triton-X, 0.1 µg/mL RNaseA and 50 µg/mL PI for 1 h at 4 °C in dark. DNA content was measured using BD Canto II.
# [1] = system: A2780 and SKOV3 cells and the resistant subcultures; experiment: Cell cycle distribution, PI staining and FACS; details: 48 h treatment, 24 h recovery
# Description: The reduced viability under treatment, as measured by the MTT assay, can be a result of cell cycle arrest and/or increased cell death. To further evaluate the anticancer properties of the ruthenium(II) complexes we measured cell cycle distribution and cell death rates after treatment with Ru3 or Ru14. After seeding and attaching, the cells were treated for 48 h with different concentrations of substances. For cell cycle distribution measurements, a recovery phase of 24 h was added after treatment, and cells were fixed and stained with PI for the DNA content. Arresting of cells in specific cell cycle phases gives them time to resolve the DNA damage (G1 arrest) or is an initial step to apoptosis if DNA damage is too severe (G2/M arrest).
# as §1
# all cancer cell lines = experiment: Mean IC50 (MTT assay) for all cancer cell lines
# Description: Thus, it can be concluded that the biological activity is mediated by a longer chain (butoxy) at the meta-position, whereas the ortho- and para-positions are more suitable with a shorter chain (ethoxy). To have a further look at the influence of the different ligand systems and substitution patterns, all β-Hydroxydithiocinnamic acid alkyl esters were tested under same conditions as their derived ruthenium(II) complexes (Figure 5B, Supplementary Table S3). […] All ligands are less cytotoxic than Cisplatin itself and therefore the metal(II) center is necessary for the high cytotoxic activity, what is in clear contrast to the literature for O,S-chelating ruthenium(II) or osmium(II) compounds with thiomaltol ligand [48, 71] but confirmed for Ru(II)/Os(II) compounds with N,N-bidentate glycosyl heterocyclic ligands. This is exemplarily shown by the comparison of mean IC50 values for Cisplatin, L14, and Ru14 (Supplementary Figure S8).
# Ovarian cancer cell lines were cultured under standard conditions (5% CO2, 37 °C, 90% humidity) in RPMI medium supplemented with 10% FCS, 100 U/mL penicillin and 100 µg/mL streptomycin (Life Technologies, Dreieich, Germany). […] The proportion of viable cells was quantified by the MTT assay and after background subtraction relative values compared to the mean of medium controls were calculated. […]
substance,measurement,setting,value
"[(η^6-p-cymene)Ru(1-(3-ethoxyphenyl)-3-(methylthio)-3-thioxo-prop-1-en-1-olate-O,S)] [Ru14]",γH2AX-foci induction,histone γH2AX-foci,less γH2AX-foci as Cisplatin
same,capacity to induce cell death in vitro,A2780 cells,high capacity to induce cell death
same,effect on cell cycle distribution,[1],no or only a minor effect on cell cycle distribution
same,mean IC50 value / cytotoxicity for all cancer cell lines compared with Cisplatin,all cancer cell lines,lower

# — paper PMC9102668, “Highly Cytotoxic Osmium(II) Compounds and Their Ruthenium(II) Analogues Targeting Ovarian Carcinoma Cell Lines and Evading Cisplatin Resistance Mechanisms” (International Journal of Molecular Sciences, 2022)
